{"source": "PubChem BioAssay AID2060493", "about": "(Molecular Pharmacology Branch, DTP, NCI, 2025);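 further: spheroids exposed to agents for 7 days before readout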;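 on viability, T/C: percent viability relative to DMSO vehicle control wells taken as 100%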", "test_system": "616215-338-R-J1-PDC tumor spheroids, viability", "assay": "Anticancer human tumor 616215-338-R-J1-PDC patient-derived colon adenocarcinoma cell line growth inhibition [GQUAD]", "settings": "spheroids with HUVEC and MSC; for IC50: curve of first compound; for viability, T/C: stronger effect = lower value", "method_in_brief": "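Tumor cells were grown as complex spheroids with HUVEC endothelial cells and mesenchymal stem cells as stroma. G-quadruplex stabilizers were combined with targeted agents over half-log dilutions from near the clinical Cmax, or from 10 microM.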", "key": {"[1]": {"settings": "second compound 0.0316 µM, first compound 0.0316 µM"}, "[2]": {"settings": "second compound 0.0316 µM, first compound 0.316 µM"}, "[3]": {"settings": "second compound 0.1 µM, first compound 0.0316 µM"}, "[4]": {"settings": "second compound 0.1 µM, first compound 0.316 µM"}, "[5]": {"settings": "second compound 0.316 µM, first compound 0.0316 µM"}, "[6]": {"settings": "second compound 0.316 µM, first compound 0.316 µM"}, "[7]": {"settings": "second compound 1 µM, first compound 0.0316 µM"}, "[8]": {"settings": "second compound 1 µM, first compound 0.316 µM"}, "[9]": {"settings": "second compound 3.16 µM, first compound 0.0316 µM"}, "[10]": {"settings": "second compound 3.16 µM, first compound 0.316 µM"}, "[11]": {"settings": "second compound 10 µM, first compound 0.0316 µM"}, "[12]": {"settings": "second compound 10 µM, first compound 0.316 µM"}}, "data": [{"smiles": "C=CC(=O)N1CCN(c2nc(=O)n(-c3c(C)ccnc3C(C)C)c3nc(-c4c(O)cccc4F)c(F)cc23)C(C)C1", "note": "(centres undefined) + Cc1[nH]c2ccc(F)cc2c1-c1nc2c3cccnc3c3ncccc3c2[nH]1", "values": [{"measurement": "IC50", "setting": "second compound 0.0316 µM", "value": "> 10000", "unit": "nM"}, {"measurement": "IC50", "setting": "second compound 0.1 µM", "value": "> 10000", "unit": "nM"}, {"measurement": "IC50", "setting": "second compound 0.316 µM", "value": "> 10000", "unit": "nM"}, {"measurement": "IC50", "setting": "second compound 1 µM", "value": "> 10000", "unit": "nM"}, {"measurement": "IC50", "setting": "second compound 3.16 µM", "value": "> 10000", "unit": "nM"}, {"measurement": "IC50", "setting": "second compound 10 µM", "value": "> 10000", "unit": "nM"}, {"measurement": "viability, T/C", "setting": "[1]", "value": 102, "unit": "%"}, {"measurement": "viability, T/C", "setting": "second compound 0.0316 µM, first compound 0.1 µM", "value": 95, "unit": "%"}, {"measurement": "viability, T/C", "setting": "[2]", "value": 97.3, "unit": "%"}, {"measurement": "viability, T/C", "setting": "second compound 0.0316 µM, first compound 1 µM", "value": 104, "unit": "%"}, {"measurement": "viability, T/C", "setting": "second compound 0.0316 µM, first compound 3.16 µM", "value": 89.7, "unit": "%"}, {"measurement": "viability, T/C", "setting": "second compound 0.0316 µM, first compound 10 µM", "value": 82.1, "unit": "%"}, {"measurement": "viability, T/C", "setting": "[3]", "value": 102, "unit": "%"}, {"measurement": "viability, T/C", "setting": "second compound 0.1 µM, first compound 0.1 µM", "value": 92.5, "unit": "%"}, {"measurement": "viability, T/C", "setting": "[4]", "value": 102, "unit": "%"}, {"measurement": "viability, T/C", "setting": "second compound 0.1 µM, first compound 1 µM", "value": 96.9, "unit": "%"}, {"measurement": "viability, T/C", "setting": "second compound 0.1 µM, first compound 3.16 µM", "value": 93.9, "unit": "%"}, {"measurement": "viability, T/C", "setting": "second compound 0.1 µM, first compound 10 µM", "value": 71.6, "unit": "%"}, {"measurement": "viability, T/C", "setting": "[5]", "value": 87.4, "unit": "%"}, {"measurement": "viability, T/C", "setting": "second compound 0.316 µM, first compound 0.1 µM", "value": 98.6, "unit": "%"}, {"measurement": "viability, T/C", "setting": "[6]", "value": 96.8, "unit": "%"}, {"measurement": "viability, T/C", "setting": "second compound 0.316 µM, first compound 1 µM", "value": 108, "unit": "%"}, {"measurement": "viability, T/C", "setting": "second compound 0.316 µM, first compound 3.16 µM", "value": 88.6, "unit": "%"}, {"measurement": "viability, T/C", "setting": "second compound 0.316 µM, first compound 10 µM", "value": 67.7, "unit": "%"}, {"measurement": "viability, T/C", "setting": "[7]", "value": 99.7, "unit": "%"}, {"measurement": "viability, T/C", "setting": "second compound 1 µM, first compound 0.1 µM", "value": 93.2, "unit": "%"}, {"measurement": "viability, T/C", "setting": "[8]", "value": 90.8, "unit": "%"}, {"measurement": "viability, T/C", "setting": "second compound 1 µM, first compound 1 µM", "value": 105, "unit": "%"}, {"measurement": "viability, T/C", "setting": "second compound 1 µM, first compound 3.16 µM", "value": 92.5, "unit": "%"}, {"measurement": "viability, T/C", "setting": "second compound 1 µM, first compound 10 µM", "value": 71.8, "unit": "%"}, {"measurement": "viability, T/C", "setting": "[9]", "value": 100, "unit": "%"}, {"measurement": "viability, T/C", "setting": "second compound 3.16 µM, first compound 0.1 µM", "value": 88.2, "unit": "%"}, {"measurement": "viability, T/C", "setting": "[10]", "value": 107, "unit": "%"}, {"measurement": "viability, T/C", "setting": "second compound 3.16 µM, first compound 1 µM", "value": 88.3, "unit": "%"}, {"measurement": "viability, T/C", "setting": "second compound 3.16 µM, first compound 3.16 µM", "value": 87.6, "unit": "%"}, {"measurement": "viability, T/C", "setting": "second compound 3.16 µM, first compound 10 µM", "value": 59.1, "unit": "%"}, {"measurement": "viability, T/C", "setting": "[11]", "value": 99.7, "unit": "%"}, {"measurement": "viability, T/C", "setting": "second compound 10 µM, first compound 0.1 µM", "value": 84.9, "unit": "%"}, {"measurement": "viability, T/C", "setting": "[12]", "value": 88, "unit": "%"}, {"measurement": "viability, T/C", "setting": "second compound 10 µM, first compound 1 µM", "value": 90.2, "unit": "%"}, {"measurement": "viability, T/C", "setting": "second compound 10 µM, first compound 3.16 µM", "value": 86.2, "unit": "%"}, {"measurement": "viability, T/C", "setting": "second compound 10 µM, first compound 10 µM", "value": 69.2, "unit": "%"}]}, {"smiles": "CC[C@@]1(O)C(=O)OCc2c1cc1n(c2=O)Cc2cc3c(CN(C)C)c(O)ccc3nc2-1", "note": "+ Cc1[nH]c2ccc(F)cc2c1-c1nc2c3cccnc3c3ncccc3c2[nH]1", "values": [{"measurement": "IC50", "setting": "second compound 0.0316 µM", "value": 302, "unit": "nM"}, {"measurement": "IC50", "setting": "second compound 0.1 µM", "value": "> 316", "unit": "nM"}, {"measurement": "IC50", "setting": "second compound 0.316 µM", "value": 232, "unit": "nM"}, {"measurement": "IC50", "setting": "second compound 1 µM", "value": "> 316", "unit": "nM"}, {"measurement": "IC50", "setting": "second compound 3.16 µM", "value": 262, "unit": "nM"}, {"measurement": "IC50", "setting": "second compound 10 µM", "value": 186, "unit": "nM"}, {"measurement": "viability, T/C", "setting": "second compound 0.0316 µM, first compound 0.000999 µM", "value": 102, "unit": "%"}, {"measurement": "viability, T/C", "setting": "second compound 0.0316 µM, first compound 0.00316 µM", "value": 99.7, "unit": "%"}, {"measurement": "viability, T/C", "setting": "second compound 0.0316 µM, first compound 0.00999 µM", "value": 103, "unit": "%"}, {"measurement": "viability, T/C", "setting": "[1]", "value": 99.4, "unit": "%"}, {"measurement": "viability, T/C", "setting": "second compound 0.0316 µM, first compound 0.0999 µM", "value": 90.5, "unit": "%"}, {"measurement": "viability, T/C", "setting": "[2]", "value": 48.2, "unit": "%"}, {"measurement": "viability, T/C", "setting": "second compound 0.1 µM, first compound 0.000999 µM", "value": 105, "unit": "%"}, {"measurement": "viability, T/C", "setting": "second compound 0.1 µM, first compound 0.00316 µM", "value": 111, "unit": "%"}, {"measurement": "viability, T/C", "setting": "second compound 0.1 µM, first compound 0.00999 µM", "value": 97, "unit": "%"}, {"measurement": "viability, T/C", "setting": "[3]", "value": 101, "unit": "%"}, {"measurement": "viability, T/C", "setting": "second compound 0.1 µM, first compound 0.0999 µM", "value": 89.5, "unit": "%"}, {"measurement": "viability, T/C", "setting": "[4]", "value": 55.2, "unit": "%"}, {"measurement": "viability, T/C", "setting": "second compound 0.316 µM, first compound 0.000999 µM", "value": 88.9, "unit": "%"}, {"measurement": "viability, T/C", "setting": "second compound 0.316 µM, first compound 0.00316 µM", "value": 109, "unit": "%"}, {"measurement": "viability, T/C", "setting": "second compound 0.316 µM, first compound 0.00999 µM", "value": 100, "unit": "%"}, {"measurement": "viability, T/C", "setting": "[5]", "value": 101, "unit": "%"}, {"measurement": "viability, T/C", "setting": "second compound 0.316 µM, first compound 0.0999 µM", "value": 79.8, "unit": "%"}, {"measurement": "viability, T/C", "setting": "[6]", "value": 38.9, "unit": "%"}, {"measurement": "viability, T/C", "setting": "second compound 1 µM, first compound 0.000999 µM", "value": 93, "unit": "%"}, {"measurement": "viability, T/C", "setting": "second compound 1 µM, first compound 0.00316 µM", "value": 108, "unit": "%"}, {"measurement": "viability, T/C", "setting": "second compound 1 µM, first compound 0.00999 µM", "value": 95.3, "unit": "%"}, {"measurement": "viability, T/C", "setting": "[7]", "value": 97.7, "unit": "%"}, {"measurement": "viability, T/C", "setting": "second compound 1 µM, first compound 0.0999 µM", "value": 90.9, "unit": "%"}, {"measurement": "viability, T/C", "setting": "[8]", "value": 51.1, "unit": "%"}, {"measurement": "viability, T/C", "setting": "second compound 3.16 µM, first compound 0.000999 µM", "value": 88.8, "unit": "%"}, {"measurement": "viability, T/C", "setting": "second compound 3.16 µM, first compound 0.00316 µM", "value": 89.9, "unit": "%"}, {"measurement": "viability, T/C", "setting": "second compound 3.16 µM, first compound 0.00999 µM", "value": 92, "unit": "%"}, {"measurement": "viability, T/C", "setting": "[9]", "value": 95.5, "unit": "%"}, {"measurement": "viability, T/C", "setting": "second compound 3.16 µM, first compound 0.0999 µM", "value": 87, "unit": "%"}, {"measurement": "viability, T/C", "setting": "[10]", "value": 42.6, "unit": "%"}, {"measurement": "viability, T/C", "setting": "second compound 10 µM, first compound 0.000999 µM", "value": 98.2, "unit": "%"}, {"measurement": "viability, T/C", "setting": "second compound 10 µM, first compound 0.00316 µM", "value": 110, "unit": "%"}, {"measurement": "viability, T/C", "setting": "second compound 10 µM, first compound 0.00999 µM", "value": 87.8, "unit": "%"}, {"measurement": "viability, T/C", "setting": "[11]", "value": 94.5, "unit": "%"}, {"measurement": "viability, T/C", "setting": "second compound 10 µM, first compound 0.0999 µM", "value": 71.4, "unit": "%"}, {"measurement": "viability, T/C", "setting": "[12]", "value": 31.4, "unit": "%"}]}]}
